In patent US20250059162A1, “MULTI-PROTEIN DEGRADATION AGENT HAVING IMIDE SKELETON” (SUZHOU KINTOR PHARMACEUTICALS, INC., priority 2021, published 2025) one finds IC50 data, which are given here for 52 compounds.

For the experiment, the system named is HL60 cells. Briefly: Anti-proliferation on HL60 cells (CellTiter-Glo, 3 days). Format: cell-based. Conditions: Homo sapiens, HL-60, 72 h, 3 days incubation, CTG luminescence, IC50 by XLfit, read-out: HL60 cells Proliferation inhibitory activity. The method, then:
HL60 cells (Cell Bank of Chinese Academy of Sciences) in the logarithmic growth phase were counted and plated evenly in a 96-well transparent bottom white plate at 20000 cells per well and 100 μL per well.
A certain amount of the compound of the present invention was weighed and diluted with DMSO to a 10 mM stock solution. The culture medium RPMI-1640 (meilunbio, MA0215) corresponding to the cells were taken, and the compound was diluted to the concentration required by the test, shaken gently and mixed evenly. 50 μL of the gradient dilution of the diluted compound was added to each well of the plated cells, and 50 μL of 0.1% DMSO was added to the control group. The plate was shaken gently, mixed evenly and incubated in a cell culture incubator for 3 days.
• 3.1 The CellTiter-Glo™ (CTG) (purchased from Promega, Cat. No. G9242) reagent was taken in advance from the −20° C. refrigerator and equilibrated to room temperature in the dark. Cell Titer-Glo buffer and Cell Titer-Glo substrate were mixed at a ratio of 1:1 to prepare a CTG detection reagent. • 3.2 The 96-well plate was taken out and inspected under a microscope for growth. • 3.3 The bottom of the 96-well plate was tagged with white paper, and then the plate was wrapped with tin foil paper, shaken at 37° C. at 300 r for 10 min and mixed evenly. • 3.4. 50 μL of CTG detection reagent was added to each well, Luminescence signal was detected using a microplate reader Biotek Synergy Hi, and the inhibition rate was calculated. IC50 values of the compounds were calculated by XLfit 5.5.0 software to evaluate the proliferation inhibitory activity on HL60 cells.
As for `Cc1cccc(-c2cnc(N3CCC(CNCc4ccc5c(c4)CN([C@@H]4CCC(=O)NC4=O)C5=O)CC3)c(C(F)(F)F)c2)c1` [Compound A124], the IC50 is below 3.04 nM.

`O=C1CCC(N2Cc3cc(NC(=O)CC4CCN(c5cccc(-c6cccc7ccccc67)n5)CC4)ccc3C2=O)C(=O)N1` (stereo not shown) [Compound A15]: the IC50 amounted to 1 nM.

Regarding `O=C1CCC(NC(=O)c2ccc(CNCC3CCN(c4ncc(-c5cccc(Cl)c5)cc4C(F)(F)F)CC3)cc2)C(=O)N1` (stereo not shown) [Compound A155], the IC50 amounted to 825 nM.

Consider `COc1cccc(-c2cnc(N3CCC(F)(C(=O)NCc4ccc5c(c4)CN(C4CCC(=O)NC4=O)C5=O)CC3)c(F)c2)c1` (stereo not shown) [Compound A119], for which the IC50 was found to be 1.09 nM.

As to `O=C1CCC(N2Cc3cc(CCCN4CCN(c5ncc(-c6cccc(Cl)c6)cc5C(F)(F)F)CC4)ccc3C2=O)C(=O)N1` (stereo not shown) [Compound A135], the IC50 worked out at 25.7 nM.

On to `Cc1nc2ccc(CNCC3CCN(c4ncc(-c5cccc(Cl)c5)cc4C(F)(F)F)CC3)cc2c(=O)n1C1CCC(=O)NC1=O` (stereo not shown) [Compound A151], for which the IC50 is 687 nM.

For `O=C1CCC(N2Cc3cc(CNCC4CCN(c5cc(F)c(-c6cccc(Cl)c6)cn5)CC4)ccc3C2=O)C(=O)N1` (stereo not shown) [Compound A101], the IC50 was 10.9 nM.

For `O=C1CCC(N2Cc3cc(NC(=O)CC4CCN(c5ncc(-c6ccncc6)cn5)CC4)ccc3C2=O)C(=O)N1` (stereo not shown) [Compound A60], the IC50 turned out to be 60 nM.

Turning to `O=C(CN1CCC(CC(=O)Nc2ccc3c(c2)CN(C2CCC(=O)NC2=O)C3=O)CC1)NCCn1c2ccccc2c2cccnc21` (stereo not shown) [Compound A8], the IC50 came out at 14 nM.

For `N#CC1(CNCc2ccc3c(c2)CN(C2CCC(=O)NC2=O)C3=O)CCN(c2ncc(-c3cccc(Cl)c3)cc2C(F)(F)F)CC1` (stereo not shown) [Compound A89], the IC50 is 9.2 nM.

On to `O=C1CCC(N2Cc3cc(NC(=O)CC4CCN(c5ccc(-c6nccc7ccccc67)cn5)CC4)ccc3C2=O)C(=O)N1` (stereo not shown) [Compound A46], for which the IC50 is below 0.2 nM.

Consider `O=C1CCC(NCc2ccc(CNCC3CCN(c4ncc(-c5cccc(Cl)c5)cc4C(F)(F)F)CC3)cc2)C(=O)N1` (stereo not shown) [Compound A165], for which the IC50 was determined as 9560 nM.

On to `O=C1CCC(N2Cc3cc(CNCC4C5CCC4CN(c4ncc(-c6cccc(Cl)c6)cc4C(F)(F)F)C5)ccc3C2=O)C(=O)N1` (stereo not shown) [Compound A91], for which the IC50 is 36.1 nM.

Consider `O=C1CC[C@@H](N2Cc3cc(CNCC4CCN(c5ncc(-c6cccc(F)c6)cc5F)CC4)ccc3C2=O)C(=O)N1` [Compound A126], for which the IC50 came to 6.7 nM.

As to `O=C1CCC(N2C(=O)c3cccc4c(CNCC5CCN(c6ncc(-c7cccc(Cl)c7)cc6C(F)(F)F)CC5)ccc2c34)C(=O)N1` (stereo not shown) [Compound A174], the IC50 turned out to be 3920 nM.

`O=C1CCC(N2Cc3cc(CNCC4CCN(c5ncc(-c6cccc(OC(F)(F)F)c6)cc5C(F)(F)F)CC4)ccc3C2=O)C(=O)N1` (stereo not shown) [Compound A96]: the IC50 was determined as 1.8 nM.

With `O=C1CCC(N2Cc3cc(CNCC4CCN(c5ncc(-c6cccc(Cl)c6)cc5C(F)F)CC4)ccc3C2=O)C(=O)N1` (stereo not shown) [Compound A118], the IC50 stood at 3.97 nM.

For the compound `O=C1CCC(N2Cc3cc(C(=O)NCC4CCN(c5ccc(-c6cccc7cccnc67)cn5)CC4)ccc3C2=O)C(=O)N1` (stereo not shown) [Compound A42], the IC50 was 0.2 nM.

As for `O=C1CCC(N2Cc3cc(C(=O)NCC4CCN(c5ccnc(-c6cccc7ccccc67)n5)CC4)ccc3C2=O)C(=O)N1` (stereo not shown) [Compound A20], the IC50 was determined as 21 nM.

As for `O=C1CCC(N2Cc3cc(NC(=O)CC4CCN(c5ncc(-c6cccc7cccc(F)c67)s5)CC4)ccc3C2=O)C(=O)N1` (stereo not shown) [Compound A26], the IC50 is below 0.2 nM.

As for `O=C1CC[C@H](N2Cc3cc(CNCC4(F)CCN(c5ncc(-c6cccc(Cl)c6)cc5C(F)(F)F)CC4)ccc3C2=O)C(=O)N1` [Compound A127], the IC50 worked out at 6.75 nM.

Take `O=C1CCC(N2Cc3cc(C(=O)NCC4CCN(c5ncc(-c6cccc7ccccc67)s5)CC4)ccc3C2=O)C(=O)N1` (stereo not shown) [Compound A23]: the IC50 turned out to be 0.2 nM.

Consider `O=C1CCC(N2Cc3cc(C(=O)NCC4CCN(c5cc(-c6cccc7ccccc67)ccn5)CC4)ccc3C2=O)C(=O)N1` (stereo not shown) [Compound A16], for which the IC50 came to 1.5 nM.

Regarding `O=C1CCC(N2Cc3cc(CNCC4CCN(c5ccc(-c6cccc(Cl)c6)cc5C(F)(F)F)CC4)ccc3C2=O)C(=O)N1` (stereo not shown) [Compound A104], the IC50 was found to be 20.5 nM.

On to `COc1cccc(-c2cnc(N3CCC(CCNc4ccc5c(c4)CN(C4CCC(=O)NC4=O)C5=O)CC3)c(C(F)(F)F)c2)c1` (stereo not shown) [Compound A132], for which the IC50 stood at 8.37 nM.

As for `O=C1CCC(N2C(=O)c3cccc4c(CNCC5CCN(c6ncc(-c7cccc(F)c7)cc6F)CC5)ccc2c34)C(=O)N1` (stereo not shown) [Compound A175], the IC50 stood at 11500 nM.

Consider `O=C1CCC(N2Cc3cc(NC(=O)CC4CCN(c5ccc(-c6cccc7ccccc67)nn5)CC4)ccc3C2=O)C(=O)N1` (stereo not shown) [Compound A32], for which the IC50 was determined as 12 nM.

As to `O=C1CCC(NS(=O)(=O)c2ccc(CNCC3CCN(c4ncc(-c5cccc(Cl)c5)cc4C(F)(F)F)CC3)cc2)C(=O)N1` (stereo not shown) [Compound A164], the IC50 came out at 7230 nM.

In the case of `O=C1CCC(N2Cc3cc(CNCC4(F)CCN(c5ncc(-c6cccc(F)c6)cc5F)CC4)ccc3C2=O)C(=O)N1` (stereo not shown) [Compound A122], the IC50 came out at 1.76 nM.

As to `O=C1CCC(N2Cc3cc(C(=O)NCC4CCN(c5cncc(-c6cccc7ccccc67)c5)CC4)ccc3C2=O)C(=O)N1` (stereo not shown) [Compound A18], the IC50 amounted to 5.5 nM.

As for `O=C1CCC(N2Cc3c(csc3CNCC3CCN(c4ncc(-c5cccc(Cl)c5)cc4C(F)(F)F)CC3)C2=O)C(=O)N1` (stereo not shown) [Compound A143], the IC50 was 3040 nM.

Turning to `O=C1CCC(N2Cc3cc(NC(=O)CC4CCN(C(=O)Cn5c6ccccc6c6cccnc65)CC4)ccc3C2=O)C(=O)N1` (stereo not shown) [Compound A11], the IC50 worked out at 39 nM.

Regarding `COc1cccc(-c2cnc(N3CCC(F)(CNCc4ccc5c(c4)CN(C4CCC(=O)NC4=O)C5=O)CC3)c(F)c2)c1` (stereo not shown) [Compound A120], the IC50 stood at 2.47 nM.

As to `Cc1ccc(N2CCN(Cc3ccc(C(=O)NCc4ccc5c(c4)CN(C4CCC(=O)NC4=O)C5=O)cc3)CC2)cc1Cl` (stereo not shown) [Compound A130], the IC50 came out at 0.54 nM.

Consider `O=C1CCC(N2Cc3nc(CNCC4CCN(c5ncc(-c6cccc(Cl)c6)cc5C(F)(F)F)CC4)ccc3C2=O)C(=O)N1` (stereo not shown) [Compound A141], for which the IC50 amounted to 160 nM.

As for `O=C1CCC(n2nc3cc(CNCC4CCN(c5ncc(-c6cccc(F)c6)cc5F)CC4)ccn3c2=O)C(=O)N1` (stereo not shown) [Compound A147], the IC50 was found to be 12300 nM.

Take `O=C1CCC(N2Cc3cc(C(=O)NCC4CCN(C(=O)NCCn5c6ccccc6c6cccnc65)CC4)ccc3C2=O)C(=O)N1` (stereo not shown) [Compound A2]: the IC50 worked out at 58 nM.

`O=C1C[C@H](N2Cc3cc(CNCC4CCN(c5ncc(-c6cccc(F)c6)cc5F)CC4)ccc3C2=O)C(=O)N1` [Compound A170]: the IC50 was 9860 nM.

For the compound `O=C1CCC(N2Cc3cc(NC(=O)CC4CCN(c5ncc(-c6ccccn6)cn5)CC4)ccc3C2=O)C(=O)N1` (stereo not shown) [Compound A59], the IC50 is 0.7 nM.

On to `O=C1CCC(N2Cc3cc(CNCC4CC5CCC(C4)N5c4ncc(-c5cccc(Cl)c5)cc4C(F)(F)F)ccc3C2=O)C(=O)N1` (stereo not shown) [Compound A90], for which the IC50 came out at 45.6 nM.

Regarding `O=C1CCC(N2Cc3cc(NC(=O)CC4CCN(c5ccc(-c6cccc(C(F)(F)F)c6)cn5)CC4)ccc3C2=O)C(=O)N1` (stereo not shown) [Compound A58], the IC50 is below 0.2 nM.

For the compound `O=C1CCC(N2Cc3cc(NC(=O)CC4CCN(c5cnc(-c6cccc7ccccc67)cn5)CC4)ccc3C2=O)C(=O)N1` (stereo not shown) [Compound A31], the IC50 was below 0.2 nM.

On to `O=C(CN1CCC(CNC(=O)c2ccc3c(c2)CN(C2CCC(=O)NC2=O)C3=O)CC1)NCCn1c2ccccc2c2cccnc21` (stereo not shown) [Compound A7], for which the IC50 turned out to be 94 nM.

`O=C(CC1CCN(c2ncc(-c3cccc4ccccc34)cn2)CC1)Nc1ccc2c(c1)CN(C1CCC(=O)N(COP(=O)(O)O)C1=O)C2=O` (stereo not shown) [Compound A117]: the IC50 was 12 nM.

Take `O=C1CCC(N2Cc3cc(CNCC4CCN(c5ncc(-c6cccc(Cl)c6)cc5C(F)(F)F)CC4)ncc3C2=O)C(=O)N1` (stereo not shown) [Compound A142]: the IC50 was 397 nM.

For `O=C1C[C@@H](N2Cc3cc(CNCC4CCN(c5ncc(-c6cccc(Cl)c6)cc5C(F)(F)F)CC4)ccc3C2=O)C(=O)N1` [Compound A171], the IC50 is 1570 nM.

On to `O=C1CCC(N2Cc3cc(C(=O)NCC4CCN(c5ccc(-c6ccc7ccccc7c6)cn5)CC4)ccc3C2=O)C(=O)N1` (stereo not shown) [Compound A40], for which the IC50 was 4.3 nM.

For the compound `O=C1CCC(n2c(C3CC3)nc3cc(CNCC4CCN(c5ncc(-c6cccc(Cl)c6)cc5C(F)(F)F)CC4)ccc3c2=O)C(=O)N1` (stereo not shown) [Compound A153], the IC50 was 11600 nM.

For `O=C1CCC(c2coc3ccc(CNCC4CCN(c5ncc(-c6cccc(Cl)c6)cc5C(F)(F)F)CC4)cc23)C(=O)N1` (stereo not shown) [Compound A150], the IC50 was determined as 3360 nM.

With `O=C1CCC(NC(=O)c2ccc(CNCC3CCN(c4ncc(-c5cccc(Cl)c5)cc4C(F)(F)F)CC3)c(Br)c2)C(=O)N1` (stereo not shown) [Compound A160], the IC50 is 1100 nM.

Turning to `O=C1C[C@@H](N2Cc3cc(CNCC4CCN(c5ncc(-c6cccc(F)c6)cc5C(F)(F)F)CC4)ccc3C2=O)C(=O)N1` [Compound A173], the IC50 came out at 9370 nM.

With `O=C(CN1CCC(CC(=O)Nc2ccc3c(c2)CN(C2CCC(=O)NC2=O)C3=O)CC1)NCc1cccc2ccccc12` (stereo not shown) [Compound A5], the IC50 is 10 nM.
